Assay results published in patent US11149062B2, “HDAC inhibitors and methods of treatment using the same” (UWM Research Foundation, Inc., priority 2015, dated 2021).
“Also recorded” adds a separate entry of the source. Like-named read-outs stand apart in the source and are kept apart here.

Tests used:
[1] = biological target: T1, Recombinant human HDAC1 (Homo sapiens, UniProt Q13547); experiment: HDAC-Glo I/II assay, HDAC1; format: biochemical; settings: for Class I selectivity Ratio HDAC 1/HDAC8: ratio of IC50 values
T1 construct: purchased BPS Bioscience Inc
Description: (§1) The purified compounds of all fragments and natural product derivatives were evaluated for inhibitory effects on three different classes of HDAC proteins (class I, IIa, and IIb). […] All activity was determined by using a fluorescence-based in vitro assay. Class I HDAC proteins that were evaluated were HDAC1, HDAC2, HDAC3, HDAC8, HDAC4, and HDAC6. Class IIa HDAC protein were HDAC4 and the Class IIb HDAC protein were HDAC6.
(§2) HDAC-Glo™ I/II Assay and Screening System (Promega) was used to determine the HDAC inhibitory activity. Recombinant human HDAC1, HDAC2, HDAC3, HDAC4, HDAC6 and HDAC8 were purchased from BPS Bioscience Inc. The inhibitory activities of the test compounds against recombinant HDAC were performed according to reagent suppliers' protocols.
(§3) All test compounds were firstly dissolved in DMSO to make 10 mM stock solution. A certain amount of stock solution was diluted to 1 mM by DMSO and then reduced by tris(2-carboxyethyl)phosphine hydrochloride (TCEP) in a molar ration of 1:1.5 for 20 min at ambient temperature prior to being assayed. After reduction, a series of fivefold dilutions of each reduced compound were prepared with HDAC-Glo buffer and 25 μL of each dilution was added into a well on a 96-well plate. HDAC enzymes were diluted to the desired concentrations with HDAC-Glo buffer and 25 μL of each diluted enzyme was dispensed into a well to mix with 25 μL of testing compound at room temperature for 30-60 seconds. After the reaction mixture had been incubated at room temperature for 1 hour, 50 μL of HDAC-Glo reagent was added to each reaction well and mixed up for 30-60 seconds. Finally, the plate was incubated at room temperature for an additional 30 minutes before the luminescence was measured on a Synergy HT plate reader (Bio-Tek). The luminescence intensity data were analyzed using GraphPad Prism 5 (GraphPad Software). In the absence of any test compound, the luminescence intensity (I100) in each data set was defined as 100% activity. In the absence of both of HDAC enzymes and test compound, the luminescence intensity (I0) in each data set was defined as 0% activity. The relative activity (%) in the presence of each compound was calculated according to the following equation: % activity=(I−I0)/(I100−I0), where I=the luminescence intensity if a compound is present in the reaction. Experiments were performed in triplicate and the calculated mean values were used for plotting.

[2] = biological target: T2, Recombinant human HDAC2 (Homo sapiens, UniProt Q92769); experiment: HDAC-Glo I/II assay, HDAC2; format: biochemical; settings: Class I HDAC; compounds reduced by TCEP prior to assay
T2 construct: purchased BPS Bioscience Inc
Description: as §1, §2, §3

[3] = biological target: T3, Recombinant human HDAC3 (Homo sapiens, UniProt O15379); experiment: HDAC-Glo I/II assay, HDAC3; format: biochemical; settings: Class I HDAC; compounds reduced by TCEP prior to assay
T3 construct: purchased BPS Bioscience Inc
Description: as §1, §2, §3

[4] = biological target: T4, Recombinant human HDAC8 (Homo sapiens, UniProt Q9BY41); experiment: HDAC-Glo I/II assay, HDAC8; format: biochemical; settings: Class I HDAC; compounds reduced by TCEP prior to assay
T4 construct: purchased BPS Bioscience Inc
T4 sequence (Q9BY41 1-377): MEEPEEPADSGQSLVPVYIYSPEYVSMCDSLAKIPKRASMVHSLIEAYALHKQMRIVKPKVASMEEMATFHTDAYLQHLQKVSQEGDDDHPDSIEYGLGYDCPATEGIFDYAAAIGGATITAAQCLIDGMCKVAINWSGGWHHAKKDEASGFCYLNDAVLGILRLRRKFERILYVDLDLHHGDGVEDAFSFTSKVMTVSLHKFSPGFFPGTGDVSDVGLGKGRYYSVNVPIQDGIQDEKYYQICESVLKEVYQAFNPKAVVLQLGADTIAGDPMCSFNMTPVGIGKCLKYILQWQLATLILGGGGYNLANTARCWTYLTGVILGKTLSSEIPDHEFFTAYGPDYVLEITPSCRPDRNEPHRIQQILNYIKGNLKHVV
Description: as §1, §2, §3

[5] = biological target: T5, Recombinant human HDAC4 (Homo sapiens, UniProt P56524); experiment: HDAC-Glo I/II assay, HDAC4; format: biochemical
T5 construct: purchased BPS Bioscience Inc
Description: as §1, §2, §3

[6] = tested on: HCT-116 (colon cancer); experiment: MTT antiproliferative assay, HCT-116; format: cell-based; settings: Homo sapiens, read-out: Antiproliferative Activity GI50, Colon HCT-116
Description: (§4) Briefly, the tumor cells (1×10^4 cells/well) were seeded in 96-well microtiter plates and incubated for 24 h at 37° C. Following incubation, the media was replaced with fresh media containing the above compounds at concentrations ranging from 1 μM to 1 pM diluted in DMSO and incubated for an additional 48 h. Drugs were run in duplicate or triplicate and control cells received fresh media with DMSO concentration equivalent to the treatment groups. […] After aspirating the culture medium, 200 μL of DMSO was added to dissolve the precipitate and the resulting solution was measured for absorbance at 570 nm with a reference wavelength of 690 nm using a microplate reader (Infinite M200 Pro TECAN).

[7] = tested on: HeLa (cervical cancer); experiment: MTT antiproliferative assay, HeLa; format: cell-based; settings: Homo sapiens, 48 h, read-out: Antiproliferative Activity GI50, Cervical HeLa
Description: as §4

[8] = tested on: RFX393 (renal); experiment: MTT antiproliferative assay, RFX393; format: cell-based; settings: 48 h, read-out: Antiproliferative Activity GI50, Renal RFX393
Description: as §4

[9] = in vivo; settings: BALB/c, mouse, in vivo, ip
Description: (§5) BALB/c mice were purchased from The Jackson Laboratory (Bar Harbor, Me.) and used between 7 and 10 weeks of age. Mice were housed in a conventional animal vivarium and were given free access to food and water. All studies and procedures were approved by the Animal Care and Use Committee of the University of Wisconsin, Milwaukee.
(§6) Each animal was initially weighed using a digital scale and then intraperitoneally (IP) injected with the compounds (listed in Table 2). A single mouse was given a single IP dose of 200 mg/kg, body weight, a second mouse received a dose of 100 mg/kg and a third mouse received a single dose of 50 mg/kg. The mice were observed and weighed every other day for a period of 2 weeks. They were euthanized if they lost more than 20% of their body weight or if there were other signs of significant toxicity. […] This process was repeated until a tolerated dose was found, and the MTD value was determined.
(§7) To determine the MTD in vivo, the compounds listed above were injected intraperitoneally into BALB/c mice and morbidity and mortality were monitored over two weeks.

[10] = tested on: class I HDACs; experiment: HDAC-Glo I/II assay, class I HDACs; format: biochemical, human; settings: methyl esters compared with TDF4, TDF5, TDF6
Description: The purified compounds of all fragments and natural product derivatives were evaluated for inhibitory effects on three different classes of HDAC proteins (class I, IIa, and IIb). The natural products FK228, SAHA, TDP-A, and TDP-B were used as a positive control. All activity was determined by using a fluorescence-based in vitro assay. Class I HDAC proteins that were evaluated were HDAC1, HDAC2, HDAC3, HDAC8, HDAC4, and HDAC6. Class IIa HDAC protein were HDAC4 and the Class IIb HDAC protein were HDAC6.
as §2
as §3, with “After reduction, a series of fivefold dilutions of each reduced compound were prepared with HDAC-Glo buffer and 25 μL of each dilution was added into a well on a 96-well plate. HDAC enzymes were diluted to the desired concentrations with HDAC-Glo buffer and 25 μL of each diluted enzyme was dispensed into a well to mix with 25 μL of testing compound at room temperature for 30-60 seconds. After the reaction mixture had been incubated at room temperature for 1 hour, 50 μL of HDAC-Glo reagent was added to each reaction well and mixed up for 30-60 seconds.” left out

[11] = 10 mg/mL cpd in 20% DMSO/saline
[12] = tested on: SKOV-3 (ovarian); experiment: MTT antiproliferative assay, SKOV-3; format: cell-based; settings: Homo sapiens, SK-OV-3; MTT, 48 h; read-out: Antiproliferative Activity GI50, Ovarian SKOV-3
Description: as §4

[13] = tested on: DU-145 (prostate cancer); experiment: MTT antiproliferative assay, DU-145; format: cell-based; settings: Homo sapiens, DU-145; MTT, 48 h; read-out: Antiproliferative Activity GI50, Prostate DU-145
Description: as §4

[14] = tested on: MDA-MB-231 (breast cancer); experiment: MTT antiproliferative assay, MDA-MB-231; format: cell-based; settings: Homo sapiens, MDA-MB-231; MTT, 48 h; read-out: Antiproliferative Activity GI50, Breast MDA-MB-231
Description: as §4

[15] = tested on: COLO-205 (colon cancer); experiment: MTT antiproliferative assay, COLO-205; format: cell-based; settings: Homo sapiens, COLO 205; MTT, 48 h; read-out: Antiproliferative Activity GI50, Colon COLO-205
Description: as §4

[16] = tested on: BALB/c mice; experiment: in vivo
Description: as §5, §6, §7

[17] = tested on: colon (HCT-116), cervical (HeLa), and renal (RFX393) tumor cell lines; experiment: MTT antiproliferative assay, all three tumor cell lines; format: cell-based; settings: HCT-116, HeLa, RFX393; summary of Table 3; read-out: GI50 values against all three tumor cell lines
Description: as §4

[18] = tested on: adult mice; settings: cited from earlier work
[19] = tested on: histones H3 and H4; settings: 30 min time point; cited from earlier work
[20] = Class I HDAC, compounds reduced by TCEP prior to assay, read-out: IC50 of HDAC1
[21] = Class IIa HDAC, compounds reduced by TCEP prior to assay, read-out: IC50 of HDAC4

T5 sequence (P56524 whole entry): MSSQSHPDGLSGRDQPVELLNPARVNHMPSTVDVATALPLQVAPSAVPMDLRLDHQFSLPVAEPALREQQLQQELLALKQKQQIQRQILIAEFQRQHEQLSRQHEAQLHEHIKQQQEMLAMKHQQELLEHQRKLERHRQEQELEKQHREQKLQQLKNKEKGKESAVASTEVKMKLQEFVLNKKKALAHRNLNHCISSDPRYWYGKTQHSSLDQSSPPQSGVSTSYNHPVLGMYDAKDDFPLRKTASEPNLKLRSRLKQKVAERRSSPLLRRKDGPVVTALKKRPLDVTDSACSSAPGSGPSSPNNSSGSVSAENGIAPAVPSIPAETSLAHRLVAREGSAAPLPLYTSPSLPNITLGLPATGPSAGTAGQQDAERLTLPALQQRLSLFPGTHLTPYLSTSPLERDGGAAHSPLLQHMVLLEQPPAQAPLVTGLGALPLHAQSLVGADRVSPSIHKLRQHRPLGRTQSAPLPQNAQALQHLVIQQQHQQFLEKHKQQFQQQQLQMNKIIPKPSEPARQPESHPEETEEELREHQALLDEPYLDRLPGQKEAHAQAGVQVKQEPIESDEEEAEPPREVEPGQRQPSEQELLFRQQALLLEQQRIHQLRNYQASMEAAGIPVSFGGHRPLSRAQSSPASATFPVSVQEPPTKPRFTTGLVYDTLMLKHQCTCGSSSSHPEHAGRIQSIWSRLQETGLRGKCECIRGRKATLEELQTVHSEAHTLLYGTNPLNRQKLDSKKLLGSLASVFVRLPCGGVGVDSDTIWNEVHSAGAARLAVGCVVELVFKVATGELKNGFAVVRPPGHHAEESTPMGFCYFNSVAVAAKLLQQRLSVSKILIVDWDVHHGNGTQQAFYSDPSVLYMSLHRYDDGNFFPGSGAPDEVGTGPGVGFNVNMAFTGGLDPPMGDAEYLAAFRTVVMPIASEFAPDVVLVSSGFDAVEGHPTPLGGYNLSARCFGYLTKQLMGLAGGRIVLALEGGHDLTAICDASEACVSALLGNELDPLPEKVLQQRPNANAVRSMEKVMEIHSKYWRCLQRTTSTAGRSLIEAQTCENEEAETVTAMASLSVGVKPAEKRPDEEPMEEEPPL
T2 sequence (Q92769 whole entry): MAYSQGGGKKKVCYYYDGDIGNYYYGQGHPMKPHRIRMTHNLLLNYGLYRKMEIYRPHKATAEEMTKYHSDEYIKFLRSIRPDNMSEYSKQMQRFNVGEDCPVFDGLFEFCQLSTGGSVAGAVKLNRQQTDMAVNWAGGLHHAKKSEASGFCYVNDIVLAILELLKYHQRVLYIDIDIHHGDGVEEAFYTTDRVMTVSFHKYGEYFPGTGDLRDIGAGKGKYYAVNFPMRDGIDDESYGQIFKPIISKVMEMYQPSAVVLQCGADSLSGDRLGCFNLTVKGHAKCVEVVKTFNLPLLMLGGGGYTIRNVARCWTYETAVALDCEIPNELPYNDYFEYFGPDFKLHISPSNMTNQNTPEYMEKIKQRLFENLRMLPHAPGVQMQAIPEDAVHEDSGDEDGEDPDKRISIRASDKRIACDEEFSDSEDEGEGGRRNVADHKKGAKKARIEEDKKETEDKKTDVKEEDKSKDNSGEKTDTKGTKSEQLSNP
T3 sequence (O15379 whole entry): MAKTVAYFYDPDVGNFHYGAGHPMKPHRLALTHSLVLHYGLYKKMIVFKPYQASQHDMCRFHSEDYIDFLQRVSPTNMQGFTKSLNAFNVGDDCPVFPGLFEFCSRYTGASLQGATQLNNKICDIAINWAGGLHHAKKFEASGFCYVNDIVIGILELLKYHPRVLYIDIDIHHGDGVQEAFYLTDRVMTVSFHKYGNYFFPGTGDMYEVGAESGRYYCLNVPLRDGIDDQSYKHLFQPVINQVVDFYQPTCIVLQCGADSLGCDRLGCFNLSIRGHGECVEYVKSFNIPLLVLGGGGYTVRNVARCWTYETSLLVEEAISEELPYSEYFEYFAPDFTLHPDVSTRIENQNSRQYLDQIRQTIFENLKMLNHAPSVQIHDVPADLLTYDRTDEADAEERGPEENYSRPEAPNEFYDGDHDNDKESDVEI
T3 sequence (Q9Y618 395-489 partner limits assumed): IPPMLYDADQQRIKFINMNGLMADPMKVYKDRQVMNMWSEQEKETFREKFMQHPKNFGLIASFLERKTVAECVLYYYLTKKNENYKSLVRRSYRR
T1 sequence (Q13547 whole entry): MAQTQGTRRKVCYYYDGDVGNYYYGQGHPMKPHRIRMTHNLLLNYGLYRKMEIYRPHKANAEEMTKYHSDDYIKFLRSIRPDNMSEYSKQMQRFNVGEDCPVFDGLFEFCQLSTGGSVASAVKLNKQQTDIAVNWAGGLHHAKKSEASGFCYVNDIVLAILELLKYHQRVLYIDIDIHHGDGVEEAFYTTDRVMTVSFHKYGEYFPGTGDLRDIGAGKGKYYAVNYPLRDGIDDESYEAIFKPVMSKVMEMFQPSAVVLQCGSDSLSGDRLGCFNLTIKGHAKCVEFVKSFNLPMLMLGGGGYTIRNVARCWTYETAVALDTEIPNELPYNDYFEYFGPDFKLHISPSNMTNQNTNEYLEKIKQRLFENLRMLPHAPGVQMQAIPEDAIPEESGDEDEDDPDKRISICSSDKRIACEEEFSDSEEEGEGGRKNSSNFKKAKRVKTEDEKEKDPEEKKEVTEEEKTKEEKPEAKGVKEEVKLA

Row | SMILES | IC50 [1, 20] [µM] | Class I selectivity Ratio HDAC 1/HDAC8 [1] | IC50 [2] [µM] | IC50 [3] [µM] | IC50 [4] [µM] | IC50 [5, 21] [µM] | GI50 ([6]; HCT-116, MTT, 48 h) [µM] | GI50 ([7]; MTT) [µM] | GI50 ([8]; MTT) [µM] | MTD at 2 weeks [9] [mg/kg] | fold less active toward all class I HDACs [10] | Solubility [11] | also measured
1 | CCC(C)C(NC(=O)CC(O)/C=C/CCS)C(=O)OC (centres unmarked) [TDF4m] | 0.0303 | 0.00061 | 2.12 | 0.0971 | 117 | > 1000 | 31 | 20.1 | 32.1 | > 200 | about 10 fold | Soluble | –
2 | CCCC[C@H](NC(=O)CC(O)/C=C/CCS)C(=O)O (some centres unmarked) [TDF5] | 0.0026 | 0.00002 | 0.0459 | 0.839 | 49.4 | > 1000 | 0.4 | 0.4 | 0.5 | > 200 | – | Mostly soluble | GI50 [12]: 0.7 µM; GI50 [13]: 0.6 µM; GI50 [14]: 0.5 µM; GI50 [15]: 0.9 µM; MTD (toxicity in healthy BALB/c mice) ([16]; BALB/c, mouse, in vivo, ip, 2 weeks): >200 mg/kg; GI50 [17]: 0.5 µM
3 | C/C=C1\NC(=O)[C@H]2CSSCC/C=C/[C@H](CC(=O)N[C@H](C(C)C)C(=O)N2)OC(=O)[C@H](C(C)C)NC1=O [FK228, romidepsin, reference compound] | – | – | – | – | – | – | – | – | – | – | – | – | IC50 [1]: 0.0038 µM; IC50 [5]: 2.37 µM; GI50 ([6]; HCT-116, 48 h): 0.0012 µM; GI50 [7]: 0.0013 µM; GI50 [8]: 0.0012 µM; MTD at 2 weeks ([9]; MTD (toxicity in healthy BALB/c mice), single IP dose, observed 2 weeks): 3.25 mg/kg; MTD (toxicity in healthy BALB/c mice) ([16]; single IP dose, observed 2 weeks): 3.125 mg/kg
4 | CCCC[C@H](NC(=O)CC(O)/C=C/CCS)C(=O)OC (some centres unmarked) [TDF5m] | 0.0265 | 0.00159 | 1.66 | 0.124 | 133 | > 1000 | 32.6 | 30.2 | 40.1 | > 200 | about 10 fold | Soluble | –
5 | COC(=O)[C@@H](NC(=O)CC(O)/C=C/CCS)C(C)C (some centres unmarked) [TDF6m] | 0.0302 | – | 1.93 | 0.1 | 100 | > 1000 | 28.4 | 25.6 | 31.7 | > 200 | about 10 fold | Soluble | –
6 | CC(/C=C/C(=O)NO)=C\[C@@H](C)C(=O)c1ccc(N(C)C)cc1 [TSA, trichostatin-A] | – | – | – | – | – | – | – | – | – | – | – | – | object recognition memory 48 h after training ([18]; single treatment immediately after training, 16.5 mM, chance 15 s): completely intact object recognition memory; also recorded: spent more time than chance; object recognition memory, treatment delayed 3 h after training ([18]; treatment delayed for 3 h after training): did not enhance memory; acetylation of histones H3 and H4 in dorsal hippocampus [19]: increases the acetylation of histones H3 and H4
